Among the data in patent US12139508B2, “Steroid derivative regulators, method for preparing the same, and uses thereof” (JIANGSU HANSOH PHARMACEUTICAL GROUP CO., LTD., priority 2018, dated 2024) are IC50 values, retold here.

This experiment addresses GABA-A receptor. Put plainly: 35S-TBPS binding assay (GABAA receptor binding ability test). As to conditions: rat cerebral cortex cell membrane, 5 μM GABA, 2 nM 35S-TBPS; read-out: 35S-TBPS bindng test: IC50 on inhibiting the TBPS binding activity. More on the design: species or system Sprague-Dawley rat. The method, then:
1.2 Experimental Procedures 1.2.1 Extraction of Cerebral Cortex Cell Membrane:
1. The cerebral cortex of male Sprague-Dawley rat was isolated.
2. A pre-chilled 0.32 M sucrose solution (one tablet of protease inhibitor was added per 100 ml) was added to the cerebral cortex (the volume of sucrose solution was 10 times the volume of the cerebral cortex). The mixture was crushed with a 50 mL glass tissue homogenizer in batches and mixed well.
3. The mixture was centrifuged at 1500 g, 4° C. for 10 minutes, and the supernatant was collected.
4. The mixture was centrifuged at 20000 g, 4° C. for 30 minutes, and the supernatant was discarded.
5. The precipitate was resuspended with the pre-chilled phosphate buffer saline (PBS) (one tablet of protease inhibitor was added per 100 ml). An average of 4 ml of PBS was added per rat, and the mixture was mixed well by a glass tissue homogenizer.
6. The mixture was centrifuged at 10000 g, 4° C. for 10 minutes, and the supernatant was discarded.
7. Steps 5 and 6 were repeated three times.
8. Finally, the precipitate was resuspended with 4 volumes of PBS. The resulting solution was dispensed, frozen in liquid nitrogen, and stored at −80° C.
9. The protein concentration was measured by the bicinchoninic acid (BCA) method.
1.2.2 ^35S-TBPS Binding Assay
1. 230 μL of PBS was added to each well of a well plate with 1.1 ml volume.
2. 60 μL of the cerebral cortex cell membrane (5 μg/μL) solution was added to each well, and the mixture was mixed well.
3. The test compound (3 μL per well) was added, and the plate was incubated at 25° C. for 5 minutes. The DMSO concentration was 1%. The initial compound concentration was 1 μM, and a 3-fold dilution in gradient was carried out to obtain a total of 8 gradients and 2 replicates. 1% DMSO was used as a negative control, and 10 μM P026-2 was used as a positive control.
4. GABA was added at a final concentration of 5 μM, and incubated at 25° C. for 5 minutes. 1 mM GABA solution was formulated, and 1.5 μL of the solution was added to each well.
5. ^35S-TBPS was added at a final concentration of 2 nM. The concentration of isotope mother solution was 9.7 μM. After dilution with PBS for 100 times, 6 μL of the diluted isotope solution was added to each well.
6. The plate was incubated at 4° C. for 20 hours.
7. The FilterMate GF/C plate was pre-treated with 0.5% PEI, and incubated at 4° C. for 1 hour.
8. The FilterMate GF/C plate was washed with Universal Harvester twice, 50 ml PBS each time.
9. The reaction solution was transferred to the GF/C plate, and each well was washed 4 times with 900 μL of PBS.
10. The washed GF/C plate was placed at 55° C. and dried for 10 minutes.
11. 40 μL of scintillation solution was added to each well, and the CPM value was read with TopCount.
1.2.3 Experimental Data Processing Method:
In the experiment, the CPM (counts per minute) value was read with TopCount. According to the readings of the High control (DMSO) and the Low control ([…] of the positive compound) experimental groups, the […] inhibition was calculated based on the following formula: % Inhibition=100×(CPMHigh control−CPMSample)/(CPMHigh control−CPMLow control)
The IC50 of the compound was calculated according to the following 4-parameter nonlinear logic formula: Y=Bottom+(Top−Bottom)/(1+10^((Log IC50−X)*Hill Slope)),
wherein: • X represents the log of compound concentration, • Y represents the 0 Inhibition.
The effect of the compound of the present invention on the TBPS binding activity was determined by the above test, and the measured IC50 values are shown in Table 1.
As for `C[C@@]1(O)CC[C@H]2[C@H](CC[C@@H]3[C@@H]2CC[C@@]2(C)[C@H]3[C@@H]3C[C@@H]3[C@@H]2C(=O)Cn2ccnc2)C1` [Example 98, 1-((2R,4aS,4bR,6aS,7S,7aS,8aR,8bR,8cR,10aR)-2-Hydroxy-2,6a-dimethyloctadecahydrocyclopropa[4,5]cyclopenta[1,2-a]phenanthren-7-yl)-2-(1H-imidazol-1-yl)ethan-1-one], the IC50 came to 0.0378 µM. To `Cc1cnn(CC(=O)[C@H]2[C@H]3C[C@H]3[C@H]3[C@@H]4CC[C@@H]5C[C@](C)(O)CC[C@@H]5[C@H]4CC[C@@]32C)c1` [Example 95, 1-((2R,4aS,4bR,6aS,7S,7aS,8aR,8bR,8cR,10aR)-2-Hydroxy-2,6a-dimethyloctadecahydrocyclopropa[4,5]cyclopenta[1,2-a]phenanthren-7-yl)-2-(4-methyl-1H-pyrazol-1-yl)ethan-1-one] belongs 0.0341 µM. As for `C[C@@]1(O)CC[C@H]2[C@H](CC[C@@H]3[C@@H]2CC[C@@]2(C)[C@H]3[C@H](C3CC3)C[C@@H]2C(=O)COc2cnc(C(F)(F)F)nc2)C1` [Example 151, 1-((3R,5R,8R,9R,10S,13S,14S,15S,17S)-15-Cyclopropyl-3-hydroxy-3,13-dimethylhexadecahydro-1H-cyclopenta[a]phenanthren-17-yl)-2-((2-(trifluoromethyl)pyrimidin-5-yl)oxy)ethan-1-one], the figure is 0.0262 µM. As for `C[C@@]1(O)CC[C@H]2[C@H](CC[C@@H]3[C@@H]2CC[C@@]2(C)[C@H]3[C@@H]3C[C@@H]3[C@@H]2C(=O)Cn2cc(-c3ncco3)cn2)C1` [Example 128, 1-((2R,4aS,4bR,6aS,7S,7aS,8aR,8bR,8cR,10aR)-2-Hydroxy-2,6a-dimethyloctadecahydrocyclopropa[4,5]cyclopenta[1,2-a]phenanthren-7-yl)-2-(4-(oxazol-2-yl)-1H-pyrazol-1-yl)ethan-1-one], the figure is 0.0158 µM; as for `C[C@@]1(O)CC[C@H]2[C@H](CC[C@@H]3[C@@H]2CC[C@@]2(C)[C@H]3[C@@H]3C[C@@H]3[C@@H]2C(=O)Cn2cc(C(=O)N3CC(F)(F)C3)cn2)C1` [Example 52], 0.065 µM; as for `C[C@@]1(O)CC[C@H]2[C@H](CC[C@@H]3[C@@H]2CC[C@@]2(C)[C@H]3[C@@H]3C[C@@H]3[C@@H]2C(=O)COc2ccc(C#N)cc2F)C1` [Example 125, 3-Fluoro-4-(2-((2R,4aS,4bR,6aS,7S,7aS,8aR,8bR,8cR,10aR)-2-hydroxy-2,6a-dimethyloctadecahydrocyclopropa[4,5]cyclopenta[1,2-a]phenanthren-7-yl)-2-oxoethoxy)benzonitrile], 0.0307 µM. For `C[C@@H]1C[C@H](C(=O)COc2ccc(F)cc2F)[C@@]2(C)CC[C@H]3[C@@H](CC[C@@H]4C[C@](C)(O)CC[C@@H]43)[C@H]12` [Example 64, 2-(2,4-Difluorophenoxy)-1-((3R,5R,8R,9R,10S,13S,14S,15R,17S)-3-hydroxy-3,13,15-trimethylhexadecahydro-1H-cyclopenta[a]phenanthren-17-yl)ethan-1-one], the IC50 was 0.0086 µM.

On to `C[C@@H]1C[C@H](C(=O)CN2C(=O)CSC2=O)[C@@]2(C)CC[C@H]3[C@@H](CC[C@@H]4C[C@](C)(O)CC[C@@H]43)[C@H]12` [Example 136, 3-(2-((3R,5R,8R,9R,10S,13S,14S,15R,17S)-3-Hydroxy-3,13,15-trimethylhexadecahydro-1H-cyclopenta[a]phenanthren-17-yl)-2-oxoethyl)thiazolidine-2,4-dione], for which the IC50 worked out at 0.0265 µM. To `COc1ccc2c(c1)nnn2CC(=O)[C@H]1[C@H]2C[C@H]2[C@H]2[C@@H]3CC[C@@H]4C[C@](C)(O)CC[C@@H]4[C@H]3CC[C@@]21C` [Example 54B, 1-((2R,4aS,4bR,6aS,7S,7aS,8aR,8bR,8cR,10aR)-2-Hydroxy-2,6a-dimethyloctadecahydrocyclopropa[4,5]cyclopenta[1,2-a]phenanthren-7-yl)-2-(5-methoxy-1H-benzo[d][1,2,3]triazol-1-yl)ethan-1-one] belongs 0.0118 µM. As for `C[C@@]1(O)CC[C@H]2[C@H](CC[C@@H]3[C@@H]2CC[C@@]2(C)[C@H]3[C@@H]3C[C@@H]3[C@@H]2C(=O)Cn2cc(C(=O)N3CCC3)cn2)C1` [Example 102, 2-(4-(Azetidine-1-carbonyl)-1H-pyrazol-1-yl)-1-((2R,4aS,4bR,6aS,7S,7aS,8aR,8bR,8c R,10aR)-2-hydroxy-2,6a-dimethyloctadecahydrocyclopropa[4,5]cyclopenta[1,2-a]phenanthren-7-yl)ethan-1-one], the figure is 0.065 µM; as for `C[C@@]1(O)CC[C@H]2[C@H](CC[C@@H]3[C@@H]2CC[C@@]2(C)[C@H]3[C@@H]3C[C@@H]3[C@@H]2C(=O)Cn2nc3ccc(F)cc3n2)C1` [Example 92, 2-(5-Fluoro-2H-benzo[d][1,2,3]triazol-2-yl)-1-((2R,4aS,4bR,6aS,7S,7aS,8aR,8bR,8cR,10aR)-2-hydroxy-2,6a-dimethyloctadecahydrocyclopropa[4,5]cyclopenta[1,2-a]phenanthren-7-yl)ethan-1-one], 0.0108 µM; as for `C[C@@]1(O)CC[C@H]2[C@H](CC[C@@H]3[C@@H]2CC[C@@]2(C)[C@H]3[C@@H]3C[C@@H]3[C@@H]2C(=O)Cn2nnc3ccc(F)cc32)C1` [Example 93B, 2-(6-Fluoro-1H-benzo[d][1,2,3]triazol-1-yl)-1-((2R,4aS,4bR,6aS,7S,7aS,8aR,8bR,8cR,10aR)-2-hydroxy-2,6a-dimethyloctadecahydrocyclopropa[4,5]cyclopenta[1,2-a]phenanthren-7-yl)ethan-1-one], 0.003 µM.

On to `C[C@@H]1C[C@H](C(=O)Cn2ccnn2)[C@@]2(C)CC[C@H]3[C@@H](CC[C@@H]4C[C@](C)(O)CC[C@@H]43)[C@H]12` [Example 132, 1-((3R,5R,8R,9R,10S,13S,14S,15R,17S)-3-Hydroxy-3,13,15-trimethylhexadecahydro-1H-cyclopenta[a]phenanthren-17-yl)-2-(1H-1,2,3-triazol-1-yl)ethan-1-one], for which the IC50 turned out to be 0.0246 µM. As for `C[C@@]1(O)CC[C@H]2[C@H](CC[C@@H]3[C@@H]2CC[C@@]2(C)[C@H]3[C@@H]3C[C@@H]3[C@@H]2C(=O)Cn2nnc3cc(F)ccc32)C1` [Example 93A, 2-(5-Fluoro-1H-benzo[d][1,2,3]triazol-1-yl)-1-((2R,4aS,4bR,6aS,7S,7aS,8aR,8bR,8cR,10aR)-2-hydroxy-2,6a-dimethyloctadecahydrocyclopropa[4,5]cyclopenta[1,2-a]phenanthren-7-yl)ethan-1-one], the figure is 0.003 µM.

Consider `C[C@@]1(O)CC[C@H]2[C@H](CC[C@@H]3[C@@H]2CC[C@@]2(C)[C@H]3[C@@H]3C[C@@H]3[C@@H]2C(=O)Cn2ncc3ccncc32)C1` [Example 42, 1-((2R,4aS,4bR,6aS,7S,7aS,8aR,8bR,8cR,10aR)-2-hydroxy-2,6a-dimethyloctadecahydrocyclopropa[4,5]cyclopenta[1,2-a]phenanthren-7-yl)-2-(1H-pyrazolo[3,4-c]pyridin-1-yl)ethan-1-one], for which the IC50 was 0.0383 µM. As to `C[C@@]1(O)CC[C@H]2[C@H](CC[C@@H]3[C@@H]2CC[C@@]2(C)[C@H]3[C@@H]3C[C@@H]3[C@@H]2C(=O)Cn2nccn2)C1` [Example 7, 1-((2R,4aS,4bR,6aS,7S,7aS,8aR,8bR,8cR,10aR)-2-Hydroxy-2,6a-dimethyloctadecahydrocyclopropa[4,5]cyclopenta[1,2-a]phenanthren-7-yl)-2-(2H-1,2,3-triazol-2-yl)ethan-1-one], the IC50 came out at 0.0147 µM.

A word on the IC50: it is the concentration at which inhibition is half-maximal.
